Activity calls are given as the source filed them. No cut-off for these calls is given here.
Legend:
[1] = target: T1, M-phase inducer phosphatase 1 (Homo sapiens) (UniProt P30304); assay: Inhibition of Cdc25A (unknown origin) at 1 to 500 uM by fluorescence assay; settings: dose 1-500 µM
T1 sequence (whole entry): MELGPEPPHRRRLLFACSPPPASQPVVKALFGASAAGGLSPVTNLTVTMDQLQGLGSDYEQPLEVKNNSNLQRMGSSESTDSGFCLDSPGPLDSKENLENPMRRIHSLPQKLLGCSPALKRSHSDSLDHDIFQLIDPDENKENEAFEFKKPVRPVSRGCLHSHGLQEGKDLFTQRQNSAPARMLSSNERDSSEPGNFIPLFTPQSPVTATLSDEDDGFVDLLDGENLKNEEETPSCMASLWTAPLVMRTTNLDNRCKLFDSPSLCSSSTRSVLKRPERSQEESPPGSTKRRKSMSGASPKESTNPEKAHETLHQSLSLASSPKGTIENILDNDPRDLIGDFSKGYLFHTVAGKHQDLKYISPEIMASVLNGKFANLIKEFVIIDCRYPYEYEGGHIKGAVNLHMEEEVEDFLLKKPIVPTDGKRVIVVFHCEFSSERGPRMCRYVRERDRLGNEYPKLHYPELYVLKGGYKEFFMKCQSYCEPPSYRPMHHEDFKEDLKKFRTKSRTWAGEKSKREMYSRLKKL

[2] = target: T2, M-phase inducer phosphatase 2 (Homo sapiens) (UniProt P30305); assay: Inhibition of recombinant human Cdc25B ([…] residues) using O-methylfluorescein phosphate as substrate at 1 to 500 uM by fluorescence assay; settings: dose 1-500 µM
T2 sequence (whole entry): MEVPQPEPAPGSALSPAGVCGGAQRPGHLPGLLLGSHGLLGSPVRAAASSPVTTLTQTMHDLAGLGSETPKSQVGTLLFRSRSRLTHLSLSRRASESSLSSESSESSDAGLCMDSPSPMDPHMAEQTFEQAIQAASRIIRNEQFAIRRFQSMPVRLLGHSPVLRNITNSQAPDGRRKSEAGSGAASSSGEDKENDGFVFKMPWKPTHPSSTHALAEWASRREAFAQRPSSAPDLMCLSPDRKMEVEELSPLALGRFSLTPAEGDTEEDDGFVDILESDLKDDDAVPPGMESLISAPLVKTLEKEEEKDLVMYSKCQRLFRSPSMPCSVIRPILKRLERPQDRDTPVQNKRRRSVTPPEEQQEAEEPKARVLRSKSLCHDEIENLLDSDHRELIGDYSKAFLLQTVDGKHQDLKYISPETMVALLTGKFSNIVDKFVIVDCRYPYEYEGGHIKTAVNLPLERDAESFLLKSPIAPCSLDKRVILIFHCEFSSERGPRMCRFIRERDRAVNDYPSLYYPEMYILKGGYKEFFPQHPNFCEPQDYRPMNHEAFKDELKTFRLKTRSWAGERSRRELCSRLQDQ

[3] = target: T2, M-phase inducer phosphatase 2 (Homo sapiens); assay: Inhibition of recombinant human Cdc25B ([…] residues) using O-methylfluorescein phosphate as substrate at 1 to 30 uM by fluorescence assay; settings: dose 1-30 µM
[4] = target: T2, M-phase inducer phosphatase 2 (Homo sapiens); assay: Inhibition of recombinant human Cdc25B ([…] residues) using O-methylfluorescein phosphate as substrate at 30 uM by fluorescence assay
[5] = target: T3, M-phase inducer phosphatase 2 (Homo sapiens, UniProt P30305); assay: Competitive inhibition of recombinant human Cdc25B ([…] residues) assessed as hydrolysis of substrate O-methylfluorescein phosphate by Lineweaver-Burk plot analysis
T3 sequence (P30305 whole entry): T2 sequence (whole entry)

[6] = target: T1, M-phase inducer phosphatase 1 (Homo sapiens); assay: Inhibition of Cdc25A (unknown origin) at 1 to 30 uM; settings: dose 1-30 µM

inhibition [1]	inhibition (active/inactive) [2]	further results	SMILES
inactive	Active		CC(C)C[C@H](Nc1nc(NCCCCCNC(=O)CCCNc2nc(N[C@@H](CC(=O)O)C(=O)O)nc(N[C@@H](Cc3ccc(O)cc3)C(=O)O)n2)nc(N[C@@H](C)C(=O)O)n1)C(=O)O
		inhibition [3]: inactive	O=C(O)C[C@H](Nc1nc(O)nc(N[C@@H](Cc2c[nH]c3ccccc23)C(=O)O)n1)C(=O)O
Active	Active		C[C@H](Nc1nc(NCCCCCNC(=O)CCCNc2nc(N[C@@H](C)C(=O)O)nc(N[C@@H](C)C(=O)O)n2)nc(N[C@@H](C)C(=O)O)n1)C(=O)O
inactive	Active	inhibition [4]: 43%; Ki [5]: 2600 nM	O=C(O)C[C@H](Nc1nc(NCCCC(=O)NCCCCCNc2nc(N[C@@H](CC(=O)O)C(=O)O)nc(N[C@@H](Cc3c[nH]c4ccccc34)C(=O)O)n2)nc(N[C@@H](Cc2ccc(O)cc2)C(=O)O)n1)C(=O)O
	Active		COC(=O)[C@H](CCCCN)Nc1nc(NCCCCCNC(=O)CCCNc2nc(N[C@@H](CCCCN)C(=O)OC)nc(N[C@@H](CCCCN)C(=O)OC)n2)nc(N[C@@H](CCCCN)C(=O)OC)n1
		inhibition [4]: 1.5%; inhibition [6]: Active	O=C(O)C[C@H](Nc1nc(NCCCCCCCCCCNc2nc(N[C@@H](CC(=O)O)C(=O)O)nc(N[C@@H](Cc3c[nH]c4ccccc34)C(=O)O)n2)nc(N[C@@H](Cc2ccc(O)cc2)C(=O)O)n1)C(=O)O
	Active		C[C@H](Nc1nc(NCCCCCNC(=O)CCCNc2nc(N[C@@H](CC(=O)O)C(=O)O)nc(N[C@@H](Cc3ccc(O)cc3)C(=O)O)n2)nc(N[C@@H](C)C(=O)O)n1)C(=O)O
		inhibition [3]: inactive	O=C(O)C[C@H](Nc1nc(O)nc(N[C@@H](Cc2ccc(O)cc2)C(=O)O)n1)C(=O)O

From ChEMBL document CHEMBL4823292, “Design, synthesis, and functional evaluation of triazine-based bivalent agents that simultaneously target the active site and hot spot of phosphatase Cdc25B” (Bioorg Med Chem Lett, 2021)
